The text below walks through data of patent US12059420B2 (BRISTOL-MYERS SQUIBB COMPANY, priority 2018, dated 2024).

This test deals with T1, human IDO1 (Homo sapiens, UniProt P14902).
T1 construct: expressed in transfected cells
T1 sequence (P14902 whole entry): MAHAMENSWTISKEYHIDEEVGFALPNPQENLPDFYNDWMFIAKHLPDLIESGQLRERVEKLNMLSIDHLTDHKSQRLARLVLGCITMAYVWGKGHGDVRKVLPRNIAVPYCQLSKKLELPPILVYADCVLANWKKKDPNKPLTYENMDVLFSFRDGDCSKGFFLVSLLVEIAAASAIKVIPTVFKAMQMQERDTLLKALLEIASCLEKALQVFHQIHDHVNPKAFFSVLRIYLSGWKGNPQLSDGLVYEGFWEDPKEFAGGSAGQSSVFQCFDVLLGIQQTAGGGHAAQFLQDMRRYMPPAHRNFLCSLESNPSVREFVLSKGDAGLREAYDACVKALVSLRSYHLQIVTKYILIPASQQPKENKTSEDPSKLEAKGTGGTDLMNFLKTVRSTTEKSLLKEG
As to the kind of experiment: IDO inhibition assay in HEK293 cells stably expressing human IDO1 (kynurenine production, Ehrlich reagent, absorbance 490 nm). It counts as cell-based. Conditions: 20 hours incubation with compound, 500 nM reference standard = 100% inhibition, read-out: IDO1 HEK Human IC50. Here is the method: HEK293 cells were transfected with a pCDNA-based mammalian expression vector harboring human IDO1 cDNA (NM 002164.2) by electroporation. They were cultured in medium (DMEM with 10% FBS) containing 1 mg/ml G418 for two weeks. Clones of HEK293 cells that stably expressed human IDO1 protein were selected and expanded for IDO inhibition assay.
The human IDO1/HEK293 cells were seeded at 10,000 cells per 50 μL per well with RPMI/phenol red free media contains 10% FBS in a 384-well black wall clear bottom tissue culture plate (Matrix Technologies LLC) 100 nL of certain concentration of compound was then added to each well using ECHO liquid handling systems. The cells were incubated for 20 hours in 37° C. incubator with 5% CO2.
The compound treatments were stopped by adding trichloroacetic acid (Sigma-Aldrich) to a final concentration at 0.2%. The cell plate was further incubated at 50° C. for 30 minute. The equal volume supernatant (20 μL) and 0.2% (w/v) Ehrlich reagent (4-dimethylaminobenzaldehyde, Sigma-Aldrich) in glacial acetic acid were mixed in a new clear bottom 384-well plate. This plate was then incubated at RT for 30 minute. The absorbance at 490 nm was measured on Envision plate reader.
Compound IC50 values were calculated using the counts of 500 nM of a reference standard treatment as one hundred percent inhibition, and counts of no compound but DMSO treatment as zero percent inhibition.
Take “1-(2-(2-(1H-tetrazol-5-yl)phenyl)-6- (benzyl(propyl)amino)pyridin-4-yl)-3-(4- ethoxyphenyl)urea [Example 272]”: the IC50 turned out to be 129 nM.
To “6-(2-(1H-tetrazol-5-yl)phenyl)-N2- benzyl-N4-(2-fluoropyridin-3-yl)- N2-isobutylpyridine-2,4-diamine, TFA [Example 54]” belongs 24.8 nM.
In the case of `CCC(CC(=O)O)c1cc(Nc2ccc(Cl)cc2)cc(N(Cc2ccccc2)CC(C)C)n1` (racemic) [Example 245, 3-(6-(benzyl(isobutyl)amino)-4-((4-chlorophenyl)amino)pyridin-2-yl)pentanoic acid], the IC50 came out at 47.5 nM.
`CCC(CC(=O)O)c1cc(Nc2ccc(Cl)cc2)cc(N(Cc2ccc(F)cc2)C(C)C)n1` (racemic) [Example 246, 3-(4-((4-chlorophenyl)amino)-6-((4-fluorobenzyl)(isopropyl)amino)pyridin-2-yl)pentanoic acid]: the IC50 is 4.7 nM.
On to `CCC(CC(=O)O)c1cc(Nc2ccc3nc(C)sc3c2)cc(N(Cc2ccccc2)CC(C)C)n1` (single isomer, unassigned) [Example 243, 3-(6-(benzyl(isobutyl)amino)-4-((2-methylbenzo [d]thiazol-6-yl)amino)pyridin-2-yl)pentanoic acid], for which the IC50 was found to be 1610 nM.
With `CCC(CC(=O)O)c1cc(NC(=O)Nc2ccc(C)cc2)cc(N(Cc2ccccc2)CC(C)C)n1` (single isomer, unassigned) [Example 244, 3-(6-(benzyl(isobutyl)amino)-4-(3-(p-tolyl)ureido)pyridin-2-yl)pentanoic acid], the IC50 amounted to 109 nM.
On to `CCC(CC(=O)O)c1cc(Nc2ccc3nc(C)sc3c2)cc(N(Cc2ccc(F)cc2)C(C)C)n1` (single isomer, unassigned) [Example 247, 3-(6-((4-fluorobenzyl)(isopropyl)amino)-4-((2-methylbenzo [d]thiazol-6-yl)amino)pyridin-2-yl)pentanoic acid], for which the IC50 came to 11.1 nM.
Consider `CCC(CC(=O)O)c1cc(Nc2ccc(Cl)cc2)cc(N(Cc2ccc(F)cc2)CC(C)C)n1` (single isomer, unassigned) [Example 248, 3-(4-((4-chlorophenyl)amino)-6-((4-fluorobenzyl)(isobutyl)amino)pyridin-2-yl)pentanoic acid], for which the IC50 turned out to be 217 nM.
Take `CCC(CC(=O)O)c1cc(Nc2ccc3nc(C)sc3c2)cc(N(Cc2ccc(F)cc2)CC(C)C)n1` (single isomer, unassigned) [Example 249, 3-(6-((4-fluorobenzyl)(isobutyl)amino)-4-((2-methylbenzo [d]thiazol-6-yl)amino)pyridin-2-yl)pentanoic acid]: the IC50 stood at 934 nM.
As to `CCC(CC(=O)O)c1cc(NC(=O)Nc2ccc(C)cc2)cc(N(Cc2ccc(F)cc2)CC(C)C)n1` (single isomer, unassigned) [Example 250, 3-(6-((4-fluorobenzyl)(isobutyl)amino)-4-(3-(p-tolyl)ureido)pyridin-2-yl)pentanoic acid], the IC50 turned out to be 156 nM.
Regarding `CCN(Cc1ccccc1)c1cc(NC(=O)Cc2ccc(C)cc2)cc(-c2ccccc2-c2nnn[nH]2)n1` [Example 1, N-(2-(2-(1H-tetrazol-5-yl)phenyl)-6-(benzyl(ethyl)amino)pyridin-4-yl)-2-(p-tolyl)acetamide], the IC50 came to 45.4 nM.
Regarding `Cc1ccc(NC(=O)Nc2cc(-c3ccccc3-c3nnn[nH]3)nc(N(CC(C)C)C3CCCCC3)n2)cc1` [Example 2, 1-(6-(2-(1H-tetrazol-5-yl)phenyl)-2-(cyclohexyl(isobutyl)amino)pyrimidin-4-yl)-3-(p-tolyl)urea], the IC50 amounted to 1040 nM.
In the case of `Cc1ccc(CC(=O)Nc2cc(-c3ccccc3-c3nnn[nH]3)nc(N(CC(C)C)C3CCCCC3)n2)cc1` [Example 3, N-(6-(2-(1H-tetrazol-5-yl)phenyl)-2-(cyclohexyl(isobutyl)amino)pyrimidin-4-yl)-2-(p-tolyl)acetamide], the IC50 amounted to 26.3 nM.
The value for `CCN(Cc1ccccc1)c1nc(NC(=O)Nc2ccc(C)cc2)cc(-c2ccccc2-c2nnn[nH]2)n1` [Example 4, 1-(6-(2-(1H-tetrazol-5-yl)phenyl)-2-(benzyl(ethyl)amino)pyrimidin-4-yl)-3-(p-tolyl)urea] was 952 nM; that for `CCN(Cc1ccccc1)c1nc(NC(=O)Cc2ccc(C)cc2)cc(-c2ccccc2-c2nnn[nH]2)n1` [Example 7, N-(6-(2-(1H-tetrazol-5-yl)phenyl)-2-(benzyl(ethyl)amino)pyrimidin-4-yl)-2-(p-tolyl)acetamide] was 89 nM.
Regarding `Cc1ccc(CC(=O)Nc2cc(-c3ccccc3-c3nnn[nH]3)nc(N(Cc3ccccc3)CC(C)C)n2)cc1` [Example 8, N-(6-(2-(1H-tetrazol-5-yl)phenyl)-2-(benzyl(isobutyl)amino)pyrimidin-4-yl)-2-(p-tolyl)acetamide], the IC50 is 8.5 nM.
As for `Cc1ccc(C(=O)Nc2cc(-c3ccccc3-c3nnn[nH]3)nc(N(Cc3ccccc3)CC(C)C)n2)c(F)c1` [Example 9, N-(6-(2-(1H-tetrazol-5-yl)phenyl)-2-(benzyl(isobutyl)amino)pyrimidin-4-yl)-2-fluoro-4-methylbenzamide], the concentration for half-maximal inhibition (IC50) came to 74 nM.
Regarding `Cc1ccc(NC(=O)Nc2cc(-c3ccccc3-c3nnn[nH]3)nc(N(Cc3ccccc3)CC(C)C)n2)cc1` [Example 10, 1-(6-(2-(1H-tetrazol-5-yl)phenyl)-2-(benzyl(isobutyl)amino)pyrimidin-4-yl)-3-(p-tolyl)urea], the IC50 worked out at 404 nM.
Consider `Cc1ccc(CC(=O)Nc2cc(-c3ccccc3-c3nnn[nH]3)nc(N(Cc3ccccc3)CC(C)C)n2)c(F)c1` [Example 11, N-(6-(2-(1H-tetrazol-5-yl)phenyl)-2-(benzyl(isobutyl)amino)pyrimidin-4-yl)-2-(2-fluoro-4-methylphenyl)acetamide], for which the 50% inhibitory concentration (IC50) amounted to 18.1 nM.
To `CCCN(Cc1ccccc1)c1cc(NC(=O)Nc2ccc(Cl)cc2F)cc(-c2ccccc2-c2noc(=O)[nH]2)n1` [Example 12, 1-(2-(benzyl(propyl)amino)-6-(2-(5-oxo-4,5-dihydro-1,2,4-oxadiazol-3-yl)phenyl)pyridin-4-yl)-3-(4-chloro-2-fluorophenyl)urea] belongs 7 nM.
As to `CCCN(Cc1ccc(F)cc1)c1cc(NC(=O)Nc2ccc(Cl)cc2F)cc(-c2ccccc2-c2noc(=O)[nH]2)n1` [Example 13, 1-(4-chloro-2-fluorophenyl)-3-(2-((4-fluorobenzyl)(propyl)amino)-6-(2-(5-oxo-4,5-dihydro-1,2,4-oxadiazol-3-yl)phenyl)pyridin-4-yl)urea], the IC50 is 13.2 nM.
The value for `CCCN(Cc1ccccc1)c1cc(NC(=O)Nc2ccc(C)cc2)cc(-c2ccccc2-c2nsc(=O)[nH]2)n1` [Example 14, 1-(2-(benzyl(propyl)amino)-6-(2-(5-oxo-4,5-dihydro-1,2,4-thiadiazol-3-yl)phenyl)pyridin-4-yl)-3-(p-tolyl)urea] was 181 nM; that for `CCCN(Cc1ccccc1)c1cc(NC(=O)Cc2ccc(C)cc2)cc(-c2ccccc2C(=O)O)n1` [Example 17, 2-(6-(benzyl(propyl)amino)-4-(2-(p-tolyl)acetamido)pyridin-2-yl)benzoic acid] was 161 nM.
Take `CCCN(Cc1ccccc1)c1cc(NC(=O)Nc2ccc(C)cc2)cc(-c2ccccc2C(=O)NS(=O)(=O)N2CCN(C)CC2)n1` [Example 18, 2-(6-(benzyl(propyl)amino)-4-(3-(p-tolyl)ureido)pyridin-2-yl)-N-((4-methylpiperazin-1-yl)sulfonyl)benzamide]: the concentration for half-maximal inhibition (IC50) came to 2430 nM.

Usually IC50 stands for the concentration that inhibits the measured activity by half.
